Laboratory results: PMC8190884 (ACS Omega, 2021)
Marks after values point to notes of the source that are not given here.

Assays:
[1] = system: HIV RT; experiment: Steady-state incorporation of 3′-O-CH3 dTTP by HIV RT; format: biochemical, HIV-1; conditions: 100 μM 3′-O-methyl dTTP; for kobs ± standard deviation (steady-state): 20 nM primer–template, 20 nM RT, 30 min
[2] = system: HIV RT; experiment: Primer extension inhibition assay on a 100-nt DNA template; format: biochemical, HIV-1; conditions: 5 μM dNTPs, 3 μM analogue, 0.5 or 6 mM Mg2+, 30 min
[3] = target: T1, HIV reverse transcriptase (RT) (Human immunodeficiency virus type 1 group M subtype B, UniProt P04585); experiment: Pre-steady-state observed incorporation rate constant; format: biochemical, HIV-1; conditions: 5 μM nucleotide; for kobs ± standard deviation: 37 °C
[4] = target: T1, HIV reverse transcriptase (RT); experiment: Pre-steady-state determination of KD and kpol; format: biochemical, HIV-1; conditions: for kpol (maximum incorporation rate) / Kd: curve fit ± standard error; for Kd: Kd (equilibrium dissociation constant)
[5] = target: HIV RT; conditions: 6 mM Mg2+, different template; ref manuscript in preparation; cited from earlier work
[6] = system: HIV; conditions: cited from earlier work

Row | SMILES | 6/0.5 mM Mg2+ with the same nucleotide (ratio of kobs; fold slower in 0.5 mM) [3] | relative rate vs dTTP same [Mg2+] ([3]; 0.5 mM Mg2+) | kobs ± standard deviation ([3]; 0.5 mM free Mg2+) [s^–1] | relative rate vs dTTP same [Mg2+] ([3]; 6 mM Mg2+) | kobs ± standard deviation ([3]; 6 mM Mg2+) [s^–1] | other results
1 | CO[C@H]1C[C@H](n2cc(C)c(=O)[nH]c2=O)O[C@@H]1COP(=O)(O)OP(=O)(O)OP(=O)(O)O [3′-O-methyl dTTP] | – | – | – | – | – | 6/0.5 mM Mg2+ with the same nucleotide (steady-state rates) [1]: 5.4; kobs ± standard deviation (steady-state) ([1]; 0.5 mM Mg2+): 3.3 × 10^–5± 0.6 × 10^–5 ^c nM/min; kobs ± standard deviation (steady-state) ([1]; 6 mM Mg2+): 1.8 × 10^–4± 0.2 × 10^–4 ^c nM/min; inhibition of primer extension (terminated vs fully extended products), in words [2]: no inhibition
2 | Cc1cn([C@H]2C[C@H](N)[C@@H](COP(=O)(O)OP(=O)(O)OP(=O)(O)O)O2)c(=O)[nH]c1=O [3′-amino dTTP] | 3.8 | 0.094 | 0.81 ± 0.13 | 0.22 | 3.1 ± 0.1 | fold slower kobs compared to dTTP ([3]; 0.5 mM (low) Mg2+): > 10 fold
3 | Cc1cn([C@H]2C[C@H](F)[C@@H](COP(=O)(O)OP(=O)(O)OP(=O)(O)O)O2)c(=O)[nH]c1=O [3′-fluoro dTTP] | 2.8 | 0.063 | 0.54 ± 0.13 | 0.11 | 1.5 ± 0.1 | fold slower kobs compared to dTTP ([3]; 0.5 mM (low) Mg2+): > 10 fold
4 | CC[C@]1(COP(=O)(O)OP(=O)(O)OP(=O)(O)O)O[C@@H](n2cc(C)c(=O)[nH]c2=O)C[C@@H]1O [4′-C-ethyl dTTP] | – | 0.15 | 1.3 ± 0.1 | 0.28 | 3.9 ± 0.4 | incorporation rate, fold faster than D-carba dTTP ([3]; 6 mM Mg2+): about 3 fold; inhibition of primer extension (terminated vs fully extended products), in words [2]: less effective
5 | Cc1cn([C@H]2C[C@H](O)[C@@](C)(COP(=O)(O)OP(=O)(O)OP(=O)(O)O)O2)c(=O)[nH]c1=O [4′-C-methyl dTTP] | 0.88 | 0.52 | 4.5 ± 1.4 | 0.28 | 3.9 ± 2.8 | incorporation rate, fold faster than D-carba dTTP ([3]; 6 mM Mg2+): about 3 fold
6 | Cc1cn([C@H]2C[C@H](N=[N+]=[N-])[C@@H](CO[P@](=O)(O)O[P@](=O)(O)OP(=O)(O)O)O2)c(=O)[nH]c1=O [AZTTP] | 4.5 | 0.23 | 2.0 ± 0.5 | 0.63 | 8.9 ± 1.9 | fold slower kobs compared to dTTP ([3]; 6 mM (high) Mg2+): about 2 fold; efficiency decline (fold decline in kpol/Kd relative to dTTP at the same Mg2+) ([4]; 0.5 mM Mg2+): 7.2 fold; kpol/Kd (catalytic efficiency) ([4]; 0.5 mM Mg2+): 0.6; kpol (maximum incorporation rate) ([4]; 0.5 mM Mg2+): 3.3 ± 0.3 s^–1; efficiency decline (fold decline in kpol/Kd relative to dTTP at the same Mg2+) ([4]; 6 mM Mg2+): 1.5 fold; kpol (maximum incorporation rate) ([4]; 6 mM Mg2+): 17.0 ± 0.6 s^–1; Kd ([4]; 0.5 mM Mg2+): 5.5 ± 1.7 µM
7 | Cc1cn([C@@H]2C[C@H](COP(=O)(O)OP(=O)(O)OP(=O)(O)O)[C@@H](O)C2)c(=O)[nH]c1=O [D-carba dTTP] | not strongly affected | 0.13 | 1.1 ± 0.5 | 0.092 | 1.3 ± 0.1 | inhibition of primer extension (terminated vs fully extended products), in words [2]: by far the weakest inhibitor; inhibition of primer extension (terminated vs fully extended products), in words ([2]; listed as D-carba): weak inhibitor under both conditions; KD, fold higher than 4′-C-ethyl and 4′-C-methyl dTTP [5]: 4–8 fold
8 | Cc1cn([C@H]2C=C[C@@H](COP(=O)(O)OP(=O)(O)OP(=O)(O)O)O2)c(=O)[nH]c1=O [d4TTP, 2′,3′-didehydro-2′,3′-dideoxythymidine triphosphate] | 4.6 | 0.21 | 1.8 ± 0.7 | 0.59 | 8.3 ± 0.8 | fold slower kobs compared to dTTP ([3]; 6 mM (high) Mg2+): about 2 fold; efficiency decline (fold decline in kpol/Kd relative to dTTP at the same Mg2+) ([4]; 0.5 mM Mg2+): 6.7 fold; kpol/Kd (catalytic efficiency) ([4]; 0.5 mM Mg2+): 0.64; kpol (maximum incorporation rate) ([4]; 0.5 mM Mg2+): 4.9 ± 0.5 s^–1; efficiency decline (fold decline in kpol/Kd relative to dTTP at the same Mg2+) ([4]; 6 mM Mg2+): 3.2 fold; kpol/Kd (catalytic efficiency) ([4]; 6 mM Mg2+): 1.9; kpol (maximum incorporation rate) ([4]; 6 mM Mg2+): 22.3 ± 1.7 s^–1
9 | Cc1cn([C@H]2C[C@H](O)[C@@H](CO[P@](=O)(O)O[P@@](=O)(O)OP(=O)(O)O)O2)c(=O)[nH]c1=O [dTTP, Deoxythymidine triphosphate] | 1.6 | 1 | 8.6 ± 1.3 | 1 | 14.1 ± 1.2 | efficiency decline (fold decline in kpol/Kd relative to dTTP at the same Mg2+) ([4]; 0.5 mM Mg2+): 1 fold; kpol/Kd (catalytic efficiency) ([4]; 0.5 mM Mg2+): 4.3; kpol (maximum incorporation rate) ([4]; 0.5 mM Mg2+): 14.3 ± 0.8 s^–1; efficiency decline (fold decline in kpol/Kd relative to dTTP at the same Mg2+) ([4]; 6 mM Mg2+): 1 fold; kpol/Kd (catalytic efficiency) ([4]; 6 mM Mg2+): 6.0; kpol (maximum incorporation rate) ([4]; 6 mM Mg2+): 25.0 ± 1.3 s^–1; Kd ([4]; 0.5 mM Mg2+): 3.3 ± 0.6 µM; Kd ([4]; 6 mM Mg2+): 4.2 ± 0.7 µM
10 | Nc1ncnc2c1ncn2[C@H]1CC[C@@H](CO[P@@](=O)(O)O[P@](=O)(O)OP(=O)(O)O)O1 [ddATP] | – | – | – | – | – | selectivity index, fold lower than that for AZT [6]: about 4.5 fold
11 | Cc1cn([C@H]2CC[C@@H](COP(=O)(O)OP(=O)(O)OP(=O)(O)O)O2)c(=O)[nH]c1=O [ddTTP, dideoxy TTP] | 5.1 | 0.16 | 1.4 ± 0.7 | 0.51 | 7.2 ± 1.0 | fold slower kobs compared to dTTP ([3]; 6 mM (high) Mg2+): about 2 fold
